Test results: patent EP0108147B1, “Use of a protoberberine alkaloid and composition containing same” (MAROKO, Peter R., priority 1982, dated 1983)

Tests used:
[1] = system: chronically instrumented conscious dogs; assay: Oral administration in chronically instrumented conscious dogs; type: in vivo
[2] = Microneucleus test with Ames test on urine for mutagenic potential
[3] = system: dogs; assay: Protocol RK: systemic arterial pressure and heart rate, pressure not held constant, two doses; type: in vivo
Source text: The protocol was the same as described above except that in these dogs, contrary to the previously reported series, the systolic arterial pressure was not maintained constant. Also, the dogs were instrumented only with an electrocardiogram (with lead aVF being constantly recorded), and polyethylene cannula in aorta introduced through the carotid artery to measure aortic pressures, and another cannula in the jugular vein for drug administration. Average heart rate (measured by continuously monitored electrocardiographic lead aVF) was reduced from 146 ± 4 (mean ± 1 S.E.M.) to […] (p <0.1) after the first 45 minutes. After the second 45 minutes heart beat rate was further reduced to […] (p <0.01 ).

[4] = system: patients with heart failure; assay: Intravenous berberine in patients with heart failure, catheterization laboratory; type: in vivo
Procedure: Berberine HCI was used in patients with heart failure. […] The observations were done in a catheterization laboratory. […] Heart rate decreased in two patients and increased in one. On the average it decreased from 82 to 76 beats/min after 0.02 mg/kg/min and to 79 after 0.2 mg/kg/min. […] It is very impressive that in one patient it fell from 21 to 11 and then to 9 mmHg. Aortic systolic pressure fell from 115 mmHg to 104 and then to 108 mmHg. Aortic diastolic pressure fell from 78 to 68 and then to 67 mmHg. Aortic mean pressure fell from 93 to 80 to 84 mmHg. This is a mild fall in mean aortic pressure. […] These are very marked increases in cardiac output and cardiac index. […] These increases are again very remarkable. […] Thus, the 5 last […] indicated the profound aemelioration in ventricular performance. […] Contractility was evaluated by the indices LV-V max (left ventricular maximal shortening velocity of the contractile element) and LV-VPM (left ventricular peak measured shortening velocoty of the contracile elements).

[5] = system: dogs; assay: Arrhythmias produced by intravenous infusion of aconitine; type: in vivo
Procedure: To examine the effects of berberine on arrhythmias produced by intravenous infusion of aconitine in fifteen dogs after development of VEA, of at least 50% of the beats or more, the dogs were given berberine intravenously as a bolus (1-5 mg/Kg) or 5% dextrose in water.

[6] = system: canine; assay: Effect of berberine after intravenous propanolol, 12 canine experiments; type: in vivo; conditions: intravenous propanolol (1 mg/kg)
Source text: The mechanism of berberine is dissimilar to that of beta-adrenergic agonists, which while increasing contractility, increase heart rate also. […] Berberine differs also from digitalis because it reduces peripheral resistance in the non-failing heart.

[7] = system: NaK-ATPase; conditions: Cohen et al., Biochem. Pharmacol. 27: 2555-2558, 1978; cited from earlier work
[8] = Solubility; type: physicochemical
Procedure: The solubility of berberine and other similar compounds of the invention may be altered by changing the pH of the solution having each compound its optimum of pH as far as solubility.
The protoberine alkaloids are administered in the manner most appropriate under the circumstances. Administration may be oral, sublingual, subcutaneous, transdermal or intramuscular injection. The compounds may be administered by intravenous route, parenterally.

[9] = LD50, intravenous bolus; conditions: rat, in vivo
[10] = system: patient with cardiomyopathy; assay: Berberine in one patient with cardiomyopathy in irreversible cardiogenic shock; type: in vivo
Procedure: In the last two hours before berberine it was not measurable. […] Stroke volume was 20 ml and then 36 and then 36 ml.

[11] = system: dogs; assay: Lethal dose, repetitive intravenous boluses; conditions: repetitive intravenous boluses within 4 hours

SMILES: COc1cc2c(cc1O)C[C@H]1c3cc(O)c(OC)cc3CCN1C2 [coreximine]
- oral effects compared with berberine ([1]; dog, in vivo, po): more marked than those of berberine
- increase of LV dP/dt ([1]; oral 5 mg/kg twice daily, after the first day): 25%

SMILES: COc1ccc2cc3[n+](cc2c1OC)CCc1cc2c(cc1-3)OCO2 [berberine]
- mutagenic potential [2]: negative
- mean pressure ([3]; after 90 minutes, from 114 ± 7): 96 ± 5 mmHg
- pulse pressure (systolic minus diastolic pressure) ([3]; end of the experiment, from an average of 28): 35 mmHg
- Mean systemic arterial pressure ([3]; first dose, 5 minutes, from 114 ± 7): 87 ± 5 mmHg
- Mean systemic arterial pressure ([3]; first dose, 10 minutes): 93 ± 4 mmHg
- Mean systemic arterial pressure ([3]; first dose, 15 minutes): 92 ± 5 mmHg
- Mean systemic arterial pressure ([3]; first dose, 30 minutes): 101 ± 7 mmHg
- Mean systemic arterial pressure ([3]; first dose, 45 minutes): 101 ± 7 mmHg
- Mean systemic arterial pressure ([3]; second dose, 5 minutes): 94 ± 4 mmHg
- Mean systemic arterial pressure ([3]; second dose, 10 minutes): 95 ± 6 mmHg
- Mean systemic arterial pressure ([3]; second dose, 15 minutes): 95 ± 5 mmHg
- Mean systemic arterial pressure ([3]; second dose, 30 minutes): 97 ± 5 mmHg
- Mean systemic arterial pressure ([3]; second dose, 45 minutes): 97 ± 5 mmHg
- side effects ([4]; 0.002 mg/kg/min 30 minutes then 0.02 mg/kg/min 30 minutes, 3 patients): without untoward side effects
- side effects ([4]; 0.2 mg/kg/min, one patient): without untoward side effects
- side effects ([4]; 3 patients with cardiomyopathy, 0.02 then 0.2 mg/kg/min, 15 minutes each): None of the patients had side effects
- cardiac index ([4]; after 0.02 mg/kg/min, from 2.9): 3.7 fiters/min/m^2
- cardiac output ([4]; after 0.02 mg/kg/min, from 5.1): 6.6 L/min
- Left ventricular end diastolic pressure ([4]; after 0.02 mg/kg/min, from 22): 16 mmHg
- ejection fraction ([4]; after 0.02 mg/kg/min, from 32): 36%
- stroke index ([4]; after 0.02 mg/kg/min, from 36): 50 ml/m^2
- Stroke volume ([4]; after 0.02 mg/kg/min, from 62): 89 mL
- Aortic diastolic pressure ([4]; after 0.02 mg/kg/min, from 78): 68 mmHg
- Heart rate, average ([4]; after 0.02 mg/kg/min, from 82): 76 beats/min
- Aortic mean pressure ([4]; after 0.02 mg/kg/min, from 93): 80 mmHg
- Aortic systolic pressure ([4]; after 0.02 mg/kg/min, from 115): 104 mmHg
- Left ventricular systolic pressure ([4]; after 0.02 mg/kg/min, from 116): 106 mmHg
- Calculated systemic peripheral resistance ([4]; after 0.02 mg/kg/min, from 1339): 883 10^-5N·S·cm^-5
- Aortic diastolic pressure ([4]; after 0.2 mg/kg/min): 67 mmHg
- Aortic mean pressure ([4]; after 0.2 mg/kg/min): 84 mmHg
- Aortic systolic pressure ([4]; after 0.2 mg/kg/min): 108 mmHg
- Calculated systemic peripheral resistance ([4]; after 0.2 mg/kg/min): 794 10^-5N·S·cm^-5
- Heart rate, average ([4]; after 0.2 mg/kg/min): 79 beats/min
- Left ventricular end diastolic pressure ([4]; after 0.2 mg/kg/min): 15 mmHg
- Left ventricular systolic pressure ([4]; after 0.2 mg/kg/min): 110 mmHg
- Stroke volume ([4]; after 0.2 mg/kg/min): 102 mL
- cardiac index ([4]; after 0.2 mg/kg/min): 4.2 fiters/min/m^2
- cardiac output ([4]; after 0.2 mg/kg/min): 7.4 L/min
- ejection fraction ([4]; after 0.2 mg/kg/min): 40%
- stroke index ([4]; after 0.2 mg/kg/min): 58 ml/m^2
- LV-VPM (left ventricular peak measured shortening velocoty of the contracile elements) ([4]; after berberine, from 0.7): 0.9
- LV-V max (left ventricular maximal shortening velocity of the contractile element) ([4]; after berberine, from 0.9): 1.1
- Left ventricular end diastolic pressure ([4]; one patient, after 0.02 mg/kg/min, from 21): 11 mmHg
- Left ventricular end diastolic pressure ([4]; one patient, after 0.2 mg/kg/min): 9 mmHg
- dogs with regression of the arrhythmias to normal sinus or supraventricular rhythm ([5]; intravenous bolus 1-5 mg/Kg after VEA of at least 50% of the beats, controls 20%): 78%
- ventricular fibrillation ([5]; two cases): ventricular fibrillation reverted to normal sinus rhythm
- effect on contractility, arterial pressure or heart rate after beta blockade [6]: did not change the effect of berberine
- inhibition of NaK-ATPase activity [7]: inactive
- solubility as a function of pH [8]: increases when pH is lowered towards acidity
- solubility in sugar solutions [8]: soluble (among others) in sugar solutions
- LD50 [9]: ~55 mg/kg
- cardiac output ([10]; 0.2 and 0.4 mg/kg/min, after 30 minutes, from 1.2): 3.5 L/min
- increase of cardiac output ([10]; after 30 minutes): 192%
- cardiac output ([10]; after 90 minutes): 2.2 L/min
- increase of cardiac output ([10]; after 90 minutes): 82%
- Stroke volume ([10]; first value after berberine, from 20 ml): 36 mL
- Stroke volume ([10]; second value after berberine): 36 mL
- average dose resulting in death due to arterial systemic hypotension [11]: 120 mg/kg
